From patent US5444042A, “Method of treatment of neurodegeneration with calpain inhibitors” (Cortex Pharmaceuticals, priority 1994, dated 1995)
“Also recorded” adds a separate entry of the source. Read-outs that look alike come from different tables or passages of the source. Where a SMILES comes first, the peptide text is derived from it. The star is where a group is joined. Boc = CC(C)(C)OC(=O)*; CH2Cl = ClC*

Key:
[1] = target: T1, calpain II from rabbit muscle (Oryctolagus cuniculus, UniProt P06814); experiment: Calpain II Ki (Table 1B(i)); type: biochemical
T1 sequence (P06814 1-422): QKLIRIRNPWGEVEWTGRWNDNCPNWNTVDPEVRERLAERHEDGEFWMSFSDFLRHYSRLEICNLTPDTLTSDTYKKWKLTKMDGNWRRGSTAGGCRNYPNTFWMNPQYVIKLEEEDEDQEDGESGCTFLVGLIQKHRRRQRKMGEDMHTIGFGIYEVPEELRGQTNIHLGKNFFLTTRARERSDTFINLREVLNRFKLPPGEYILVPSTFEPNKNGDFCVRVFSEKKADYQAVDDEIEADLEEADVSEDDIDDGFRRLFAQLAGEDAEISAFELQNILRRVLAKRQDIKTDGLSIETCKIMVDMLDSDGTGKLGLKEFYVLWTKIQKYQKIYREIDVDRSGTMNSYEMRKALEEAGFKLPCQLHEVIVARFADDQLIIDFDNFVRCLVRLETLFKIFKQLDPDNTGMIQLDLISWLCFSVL
T1 sequence (P06813 1-266 partner): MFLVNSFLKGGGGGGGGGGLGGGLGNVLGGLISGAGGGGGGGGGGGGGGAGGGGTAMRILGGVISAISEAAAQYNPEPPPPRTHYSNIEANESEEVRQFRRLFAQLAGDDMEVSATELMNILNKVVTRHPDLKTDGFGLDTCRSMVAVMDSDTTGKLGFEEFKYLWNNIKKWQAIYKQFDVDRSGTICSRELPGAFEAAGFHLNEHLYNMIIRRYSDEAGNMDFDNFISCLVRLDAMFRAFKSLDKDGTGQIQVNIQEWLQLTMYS
Description: The Peptide Keto-Compounds are reversible inhibitors of Calpains and other thiol proteases. […] Cathepsin B from bovine spleen was assayed using Z-[…]-nitrophenylphosphate as substrate. […] The Ki value for the inhibition of Calpains and cathepsin B by several Peptide Keto-Compounds are shown in μM (micromolar). The values for leupeptin, which is commercially available from Calbiochem of La Jolla, Calif., are shown for comparison.

Calpain within platelets = experiment: Platelet membrane permeation assay, spectrin proteolysis (Examples 4A, 4B); type: cell-based, rat; conditions: for inhibition of Calpain within platelets: 100 μM, A23187 1 μM; for IC50: concentration at which 50% of the Calpain activation present in controls occurred
In short: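 Rat (Sprague-Dawley) platelets at 10^7 cells/ml in HEPES buffer pH 7.4, preincubated 5 min with inhibitor, then 5 min with 1 μM A23187 to activate calpain. Spectrin proteolysis assessed by SDS-PAGE and anti-spectrin immunoblot, quantified by densitometry.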

[2] = tested on: Calpain in crude brain extracts; experiment: Ca2+-stimulated spectrin proteolysis in crude brain extracts (Example 2); type: biochemical; conditions: for inhibition of spectrin proteolysis in crude brain extracts: 100 μM
In short: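 Brain tissue was homogenized in 10 mM Tris pH 7.4, 0.32 M sucrose, 1 mM EGTA and 1 mM DTT, and nuclei and debris were removed. Calpain activity was scored as Ca^2+-stimulated proteolysis of endogenous spectrin.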

[3] = Suc-Leu-Tyr-amidomethylcoumarin, HEPES pH 7.2, read-out: Ki Calpain II

SMILES | Ki [1, 3] | inhibition of Calpain within platelets (Calpain within platelets) | inhibition of spectrin proteolysis in crude brain extracts [2] | IC50 (Calpain within platelets) | Ki [1] | effect on intracellular (platelet) Calpain (Calpain within platelets; concentration not given) | inhibition in the system of Example 2 ([2]; concentration not given)
CCOC(=O)C(=O)C(CC)NC(=O)[C@H](C)NC(=O)[C@H](C)NC(=O)OCc1ccccc1 (mixture of isomers) [Z-Ala-Ala-DL-Abu-COOEt, Z-Ala-Ala-DL-Abu-CO2 Et] | 200 µM | significant inhibition | significant inhibition |  |  |  | 
CCCCC(NC(=O)C(CC(C)C)NC(=O)OCc1ccccc1)C(=O)C(=O)OCC (stereo not drawn) [Z-Leu-Nle-COOEt, Z-Leu-NLeu-CO2 Et] | 0.18 µM | significant inhibition | significant inhibition | 20 µM |  |  | 
CCC(NC(=O)[C@@H]1CCCN1C(=O)[C@H](C)NC(=O)[C@H](C)NC(=O)CCC(=O)OC)C(=O)C(=O)OC (mixture of isomers) [MeO-Suc-Ala-Ala-Pro-Abu-COOMe, MeO-Suc-Ala-Ala-Pro-DL-Abu-CO2 Me] |  | significant inhibition | significant inhibition |  |  |  | 
CC(=O)N[C@@H](CC(C)C)C(=O)N[C@@H](CC(C)C)C(=O)N[C@H](C=O)CCCNC(=N)N [Leupeptin, Ac-Leu-Leu-Arg-H, reference compound] |  |  |  |  | 0.43 µM | little effect; also recorded: failed to exhibit Calpain inhibitory activity | showed inhibition
CCOC(=O)C(=O)C(Cc1ccccc1)NC(=O)C(CC(C)C)NC(=O)OCc1ccccc1 (stereo not drawn) [Z-Leu-Phe-COOEt] | 0.4 µM | significant inhibition | significant inhibition | 42 µM |  |  | 
CC(C)CC(NC(=O)CNC(=O)OC(C)(C)C)C(=O)NC(Cc1ccccc1)C(=O)CCl (stereo not drawn) [Boc-Gly-Leu-Phe-CH2 Cl] (Boc-Gly-Leu-Phe-CH2Cl; configuration not given here) |  | significant inhibition | significant inhibition |  |  |  | 
CCCC(NC(=O)[C@H](CC(C)C)NC(=O)OCc1ccccc1)C(=O)C(=O)OCC (mixture of isomers) [Z-Leu-Nva-COOEt, Z-Leu-DL-Nva-COOEt] | 1.2 µM | significant inhibition | significant inhibition | 40 µM |  |  | 
N=C(N)SCCCOc1oc(=O)c2ccccc2c1Cl [CiTprOIC, 4-chloro-3-(3-isothiureidopropoxy)isocoumarin] |  | significant inhibition | significant inhibition |  |  |  | 
CCOC(=O)C(=O)[C@H](CC)NC(=O)[C@H](CC(C)C)NC(=O)OCc1ccccc1 (racemic) [Z-Leu-Abu-COOEt, Z-Leu-DL-Abu-COOEt] | 0.4 µM | significant inhibition | significant inhibition | 42 µM |  |  | 
N=C(N)SCCCOc1oc(=O)c2cc(N)ccc2c1Cl [NH2 -CiTPrOIC (ACITIC), 7-amino-4-chloro-3-(3-isothiureidopropoxy)isocoumarin] |  | significant inhibition | significant inhibition |  |  |  | 
